Laboratory results from US11350630B2, “1-amino-1-cyclopropanecarboxylic acid hydrochloride formulations” (Valent BioSciences LLC, priority 2017, dated 2022).

Assays:
[1] = test system: cotton cotyledons; assay: Cotton cotyledon bioefficacy assay: effect of solution pH and ACC form on ethylene production; conditions: for Ethylene Production: 250 ppm, 48 hours after spray
[2] = test system: Gala apple; assay: Apple fruitlet thinning assay; type: in vivo
Description: Formulations 1-3 were diluted with water to 408 ppm ACC HCl salt (i.e. molar equivalent to 300 ppm ACC free acid) and applied to Gala apple fruit when mean fruit diameter was 20 mm along with ACC free acid at 300 ppm. The apple plants were allowed to reach fruit set and set fruits were counted and compared to an untreated control. Fruit set was calculated as the number of fruits which set on a sample of 100 flower clusters.

[3] = Chemical stability of ACC HCl in select non-aqueous solvents, 54 C, 3 weeks; type: physicochemical; conditions: for ACC HCl 3 weeks / ACC HCl % loss: 54 C, 3 weeks; for ACC HCl Initial: time 0
Description: Formulations were prepared with 14% w/w initial concentration of ACC HCl and […] Tween® 20 in each of the following solvents: 1,3 propanediol; ethylene glycol; diethylene glycol; dimethyl lactamide; and N-methyl pyrrolidone. Each formulation was then stored at 54 C for 3 weeks, which is the equivalent of storage for 3 years at room temperature. ACC HCl salt concentration was measured at time 0 and at 3 weeks.

[4] = Non-aqueous solvent screening (solubility of ACC HCl); type: physicochemical; conditions: about 21° C.
Description: ACC HCl salt was added at 1-gram increments to 1 liter of each of the solvents in Table 1 at about 21° C. while stirring until the salt would no longer solubilize.

[5] = Titration of ACC HCl salt solutions; type: physicochemical
Description: When ACC HCl salt was added to water to a concentration of 10% w/w ACC the pH was determined to be 1.0±0.3. The solution was then titrated with each of sodium hydroxide, N,N dimethyl ethanolamine, triethanolamine, choline hydroxide, ammonium hydroxide dimethyl amine, and triethyl tetramine to achieve more basic solutions.
Thus, ACC HCl salt solutions are inherently unstable at a pH range of 2.75 to 8.5.

[6] = Stable non-aqueous ACC HCl salt formulation (solubility, stability at 5° C.); type: physicochemical; conditions: 13.6% ACC HCl salt, 84.4% propylene glycol, 2% Tween 20
Description: A formulation was prepared containing 13.6% ACC HCl salt, 84.4% propylene glycol and 2% Tween® 20.
Further, non-aqueous formulations of the present invention remained stable when placed at 5° C. Thus, specific non-aqueous formulations can stabilize ACC HCl salt.

[7] = Chemical stability of ACC HCl in select non-aqueous solvents, 5 or 54 C, 2 weeks; type: physicochemical; conditions: for % loss / ACC HCl 5 C., 2 weeks / ACC HCl 54 C., 2 weeks: 2 weeks; for ACC HCl Initial: time 0
Description: Formulations were prepared with 14% w/w initial concentration of ACC HCl and 2.5% w/w Tween® 20 in each of the following solvents: polyethylene glycol and propylene glycol. Each formulation was then stored at 5 or 54 C for 2 weeks, which is the equivalent of storage for 2 years at room temperature. ACC HCl salt concentration was measured at time 0 and at 2 weeks.

[8] = Surfactant screening for stable ACC HCl salt solutions (titration with potassium hydroxide); type: physicochemical; conditions: addition at about 0.5% w/w
Description: The solution was then titrated with potassium hydroxide to achieve a more basic solution. Due to the exothermic nature of the titration process, titration occurred in a water bath maintained at a temperature of 20° C.±5° C.

[9] = Diethylene glycol with Tween 20
[10] = Dimethyl lactamide with Tween 20
[11] = N-methyl pyrrolidone with Tween 20
[12] = Polyethylene glycol with 2.5% w/w Tween 20, 5 C
[13] = Polyethylene glycol with 2.5% w/w Tween 20, 54 C
[14] = Propylene glycol with 2.5% w/w Tween 20, 5 C
[15] = Propylene glycol with 2.5% w/w Tween 20, 54 C

## NC1(C(=O)O)CC1 [ACC free acid, 1-amino-1-cyclopropanecarboxylic acid]
[1]; solution pH 2.5
  Ethylene Production: 31.1 nL/g FW/hr
[1]; solution pH 5.0
  Ethylene Production: 13.4 nL/g FW/hr
[2]; 408 ppm ACC HCl salt (formulations) or 300 ppm ACC free acid, mean fruit diameter 20 mm
  Fruit set: 70 fruit/100 flower clusters
[2]; compared to untreated control
  reduction of fruit set: 20%

## Cl.NC1(C(=O)O)CC1 [ACC HCl, 1-amino-1-cyclopropanecarboxylic acid hydrochloride salt]
[1]; solution pH 2.5
  Ethylene Production: 26.9 nL/g FW/hr
[1]; solution pH 5.0
  Ethylene Production: 16.5 nL/g FW/hr
[1]; same solution, pH 2.5 vs pH 5.0
  more ethylene generated at pH 2.5 than at pH 5.0: 65%
[3]; 1,3 propanediol with Tween 20
  ACC HCl 3 weeks: 13.9 % w/w
  ACC HCl % loss: 1.7 % loss
  ACC HCl Initial: 14.14 % w/w
[3]; [9]
  ACC HCl 3 weeks: 13.8 % w/w
  ACC HCl % loss: 1.4 % loss
  ACC HCl Initial: ~14% w/w
[3]; [10]
  ACC HCl 3 weeks: 13.5 % w/w
  ACC HCl % loss: 2.9 % loss
  ACC HCl Initial: 13.9 % w/w
[3]; Ethylene glycol with Tween 20
  ACC HCl 3 weeks: 13.6 % w/w
  ACC HCl % loss: 2.9 % loss
  ACC HCl Initial: 14.0 % w/w
[3]; [11]
  ACC HCl 3 weeks: 13.9 % w/w
  ACC HCl % loss: 0.7 % loss
  ACC HCl Initial: 14.0 % w/w
[4]; 1,3-propane diol
  Measured Solubility of ACC HCl: 25 % w/w
[4]; Diethylene glycol monomethyl ether
  Measured Solubility of ACC HCl: 14 % w/w
[4]; Diethylene glycol
  Measured Solubility of ACC HCl: 25 % w/w
[4]; Dimethyl lactamide
  Measured Solubility of ACC HCl: 20 % w/w
[4]; Dipropylene glycol
  Measured Solubility of ACC HCl: 8 % w/w
[4]; Ethyl lactate
  Measured Solubility of ACC HCl: 14 % w/w
[4]; Ethylene glycol
  Measured Solubility of ACC HCl: 34 % w/w
[4]; Fatty alcohol ethoxylate
  Measured Solubility of ACC HCl: 14 % w/w
[4]; Glycerin
  Measured Solubility of ACC HCl: 14 % w/w
[4]; Monoacetin
  Measured Solubility of ACC HCl: 14 % w/w
[4]; N-methyl-2-pyrrolidinone
  Measured Solubility of ACC HCl: 20 % w/w
[4]; Polyethylene glycol 200
  Measured Solubility of ACC HCl: 21 % w/w
[4]; Polyethylene glycol 400
  Measured Solubility of ACC HCl: 14 % w/w
[4]; Polyethylene glycol 600
  Measured Solubility of ACC HCl: 14 % w/w
[4]; Polypropylene glycol
  Measured Solubility of ACC HCl: 14 % w/w
[4]; Propylene carbonate
  Measured Solubility of ACC HCl: <2 % w/w
[4]; Propylene glycol
  Measured Solubility of ACC HCl: 27 % w/w
[4]; The ester of 2-ethyl hexanol and natural lactic acid
  Measured Solubility of ACC HCl: 14 % w/w
[5]; ACC HCl salt added to water to 10% w/w ACC
  pH of solution: 1.0±0.3
[5]; further titration with base
  pH at which all precipitates dissolve into solution: above 9.0
[6]
  solubility in non-aqueous solvents: soluble
[7]; [12]
  % loss: −0.3%
  ACC HCl 5 C., 2 weeks: 14.20 % w/w
[7]; [13]
  % loss: 2.5%
  ACC HCl 54 C., 2 weeks: 13.81 % w/w
[7]; Polyethylene glycol with 2.5% w/w Tween 20
  ACC HCl Initial: 14.16 % w/w
[7]; [14]
  % loss: 0%
  ACC HCl 5 C., 2 weeks: 14.10 % w/w
[7]; [15]
  % loss: 6.7%
  ACC HCl 54 C., 2 weeks: 13.15 % w/w
[7]; Propylene glycol with 2.5% w/w Tween 20
  ACC HCl Initial: 14.10 % w/w

## O=C(O)CN(CCN(CC(=O)O)CC(=O)O)CC(=O)O [EDTA, ethylenediaminetetraacetic acid]
[8]
  solution stability of ACC HCl salt solution: further enhanced solution stability
